Laboratory results from ChEMBL document CHEMBL1759919, “1α,25-Dihydroxyvitamin D3-3β-bromoacetate, a potential cancer therapeutic agent: synthesis and molecular mechanism of action” (Bioorg Med Chem Lett, 2011).
Calls of active or inactive are those of the source. No cut-off for these calls is given here.

Columns and labels:
Assay type in all cases: functional, cell-based
A498 [1] = assay: Induction of CYP24 mRNA expression in human A498 cells at 10^-8 M after 16 hrs by RT-PCR analysis
A498 [2] = assay: Induction of CYP24 mRNA expression in human A498 cells at 10^-6 M after 24 hrs by RT-PCR analysis
A498 [3] = assay: Induction of CYP24 mRNA expression in human A498 cells at 10^-8 M after 4 hrs by RT-PCR analysis

Compound	Activity (A498 [1])	Activity (A498 [2])	Activity (A498 [3])
C=C1/C(=C\C=C2/CCC[C@]3(C)[C@@H]([C@H](C)CCCC(C)(C)O)CC[C@@H]23)C[C@@H](OC(=O)CBr)C[C@@H]1O	Active	Active	
C=C1/C(=C\C=C2/CCC[C@]3(C)[C@@H]([C@H](C)CCCC(C)(C)O)CC[C@@H]23)C[C@@H](O)C[C@@H]1O	Active		Active
